Assays:
CAM = system: CAM; parameters: method as in PMID 33823390; settings: cited from earlier work
[1] = system: HCT116, A2780, A549, and MCF7 cell lines; parameters: method as in PMID 28702618; settings: cited from earlier work
HCT116DoxR cells [2] = assay: Cell cycle progression (PI, flow cytometry)
Source text: Therefore, we have assessed the cytostatic potential of complexes 2, 3, 5, and 7, and their ability to interfere with the progression of the cell cycle using the fluorescent marker PI. Since this marker can intercalate with DNA, the measurement of the fluorescence emitted by flow cytometry makes it possible to assess the DNA content at each stage of the cell cycle (G0/G1, S, and G2/M).[67] To ensure that all the cells were in the same phase before their exposure to the complexes, a double block was carried out with thymidine, a DNA synthesis inhibitor.[67]
HCT116DoxR cell line was seeded in 6-well plates in a density of 1×10^5 cells/mL and incubated for
24 h. Afterwards, the culture medium was replaced by medium with IC50 concentrations of different
HCT116DoxR cell line was seeded in 6-well plates in a density of 1×10^5 cells/mL, incubated for 8 h in
a humidified atmosphere at 37 °C and 5% (v/v) CO2, and later synchronized in early S-phase with a 2
mM thymidine solution (Merck, Germany) for a 16 h period. Later, medium with thymidine was
replaced by fresh media and, after 8 h a second block with thymidine was performed in the same
concentrations of Cu(II) complexes. 0.1% (v/v) DMSO was used as the vehicle control while 5 μM
After treatment, cells were incubated for 9, 12,

chicken embryos = assay: Ex-ovo chick chorioallantoic membrane (CAM) assay; format: in vivo; settings: IC50, vs DMSO control
[3] = system: HCT116DoxR (Dox-resistant colorectal carcinoma cell line); assay: MTS cell viability assay, 2D culture, HCT116DoxR; settings: read-out: IC50 (μM) HCT116DoxR, 48 h of exposure
Experimental: (§1) The in vitro cytotoxic potential of Cu(II) complexes in tumor and healthy cells was assessed using the MTS assay, a colorimetric method that allows the quantification of viable cells in culture.[46]
In this regard, cell viability was performed for each of the ligands on HCT116DoxR and fibroblasts.
Cell culture and maintenance
(§2) The cancer cell lines HCT116 (colorectal carcinoma) and A2780 (ovarian carcinoma) were obtained
(§3) from the American Type Culture Collection (ATCC®, Manassas, VA, USA), as well as the normal
human primary dermal fibroblasts.
(§4) Apart from the A2780 cell line, which was cultured in Roswell Park Memorial Institute (RPMI)
(§5) medium, all cells were cultured in Dulbecco’s modified Eagle medium (DMEM). Both media were
(§6) supplemented with 10% (v/v) fetal bovine serum (FBS) and 1% (v/v) of a Pen/Strep
(§7) (Penicillin/Streptomycin) solution. To maintain the resistant phenotype of the HCT116DoxR cell line,
(§8) the medium was additionally supplemented with 3.6 μM Dox4. All media and supplements were
(§9) purchased from Thermo Fischer Scientific (Waltham, MA, USA).
(§10) Cells were maintained in 25 cm2 T-flasks (T25) in a humidified atmosphere at 37 °C and 5% (v/v) CO
(§11) (SANYO CO2 Incubator, Electric Biomedical Co., Osaka, Japan).
(§12) The effect of Cu(II) complexes on cell viability was studied in HCT116, HCT116DoxR, and A2780
(§13) cancer cell lines and in normal human primary fibroblasts. Cells were seeded in a density of 0.75×105
(§14) cells/mL into 96-well plates and incubated in a humidified atmosphere at 37 °C and 5% (v/v) CO2 for
(§15) 24 h. After incubation, complexes were weighed, immediately solubilized in 100% (v/v) DMSO and
(§16) diluted for the final concentration with cell culture medium. The medium in each well was replaced by
(§17) a solution of fresh medium containing each Cu(II) complex (concentrations ranging from 0.01 μM to
(§18) as negative and positive controls, respectively.
(§19) Following a second incubation period of 48 h in the same conditions, the supernatant of each well was
(§20) replaced by a solution containing MTS reagent (3-(4,5-dimethylthiazol-2-yl)-5-(3-
(§21) carboxymethoxyphenyl)-2-(4-sulfophenyl)-2H-tetrazolium) provided by the CellTiter 96® AQueous
(§22) Non-Radioactive Cell Proliferation Assay Kit (Promega, Madison, WI, EUA) for a 30 minutes
(§23) incubation. The percentage of viable cells was indirectly determined by the spectrophotometric
(§24) quantification at 490 nm in a microplate reader, Tecan Infinite M200 (Tecan, Männedorf, Switzerland)
(§25) of formazan production, resultant from the reduction of the MTS reagent by mitochondrial
(§26) dehydrogenases. Since these enzymes are only active in viable cells, the absorbance value measured is
(§27) directly proportional to the percentage of viable cells in culture5.

EB–ct-DNA adduct = assay: Ethidium bromide displacement fluorescence assay; format: binding, calf; settings: PBS; for apparent binding constant (Kapp): EB displacement, KEB = 1 × 10^7 M^–1; for Stern–Volmer quenching constant KSV: EB–ct-DNA, 0–40 μM complex
fibroblasts = assay: Cell migration (wound healing) assay; format: cell-based, human; settings: 24 h; complexes at IC50, Dox 0.4 μM; vs DMSO
Source text: A wound healing assay was therefore carried out on fibroblasts to study the influence of the Cu(II) complexes on cell migration in vitro. Skin fibroblasts were the model chosen for this assay as they are essential for regenerating damage in this tissue.[85] […]
intrinsic binding constant Kb can be obtained from the ratio of the slope to the intercept of the linear fit of the plot [DNA]/[εa−εf] versus [DNA].
For emission quenching experiments, equimolar solution of ct-DNA and ethidium bromide (EB, Sigma Aldrich) was prepared and allowed to incubate for 2 h in the dark. The tested complexes were titrated into the formed EB–ct-DNA adduct and incubated for additional 30 min. The final concentration of the EB–ct-DNA adduct was 50 μM and the concentration of the complexes varied from 0 to 40 μM. The fluorescence spectra were recorded on FLS-980 spectrofluorometer (Edinburgh Instruments, Livingston, United Kingdom) with excitation wavelength 515 nm and emission wavelength of 620 nm. The apparent binding constant (Kapp) was calculated using the Equations : […]
where I0 and I are the fluorescence intensity in the absence and presence of the complexes; KSV is the Stern-Volmer quenching constant; [Q] is the concentration of the complexes; [Q1/2] is the concentration of the complex causing 50% reduction in the fluorescence intensity; K = 1×107 […]
conditions mentioned before until the presence of a confluent monolayer was detected. A scratch was made on the surface of each well using a sterile 200 μL micropipette tip and the cells were […]
Each plate was then incubated for 24 h in the same conditions mentioned before. […]
The width of each scratch in each image was measured via ImageJ software. […]
The ex-ovo CAM assay was performed to evaluate the copper(II) complexes’ effect on angiogenesis, as already described in literature11,12. […] Newly formed blood vessels were manually counted via ImageJ software. […]
All results were expressed as mean ± SEM of at least two independent biological assays, each obtained by technical duplicates, unless otherwise specified. […]

[4] = system: normal human primary dermal fibroblasts; assay: MTS cell viability assay, normal fibroblasts; format: cell-based; settings: 48 h of exposure
Experimental: as §1
Cell culture and maintenance
as §2, §3
human primary dermal fibroblasts.
as §4, §5, §6, §7, §8, §9, §10, §11, §12, §13, §14, §15, §16, §17, §19, §20, §22, §23, §24, §25

[5] = system: A2780 (ovarian carcinoma cell line); assay: MTS cell viability assay, 2D culture, A2780; format: cell-based, human; settings: 48 h of exposure
Experimental: as §1
Cell culture and maintenance
as §2, §3
human primary dermal fibroblasts.
as §4, §5, §6, §7, §8, §9, §10, §11, §12, §13, §14, §15, §16, §17, §18, §19, §20, §21, §22, §23, §24, §25, §26, §27
(§28) By analysing the cell viability as a function of log10(concentration) using Prism 8 (GraphPad
(§29) in cell viability) of each complex in the respective cell line at 48 h. The selective index (SI) for each
(§30) complex was also determined by dividing the IC50 of human fibroblasts by the respective IC50 in each
(§31) cancer cell line (allowing us to understand how much active a complex is in tumor versus normal cell).

BAX and BCL-2 = BAX and BCL-2 protein expression by Western Blot; format: cell-based, human; settings: HCT116DoxR, 48 h, IC50; normalized to β-actin
HCT116DoxR spheroids = assay: MTS cell viability assay in 3D HCT116DoxR spheroids; format: cell-based, human; settings: 6-day-old spheroids, 48 h of exposure
[6] = Stability and solubility in biological medium (RPMI) by UV-vis; format: physicochemical; settings: colorless RPMI, 50 μM, 37 °C
Experimental: The stability of complexes 2, 3, 5, and 7 was assessed by UV–vis spectroscopy at 0, 24, and 48 h of incubation at 37 °C.
In Figure S18, it is possible to observe the spectra of all Cu(II) complexes, where high-energy absorption bands correspond to π → π* and n → π* transitions with peaks in the 230–330 and 330–400 nm ranges, respectively, that are associated with the aromatic rings of terpyridines.[39],[49] Analyzing the spectra of complexes 2 and 3, it is possible to detect the existence of 3 bands (maximum ∼240, ∼ 290, and between 320 and 340 nm). […] Complex 7 only has 2 bands of maximum absorbance at 290 nm and between 320 and 340 nm.
Nevertheless, all Cu(II) complex solutions were freshly prepared and added immediately to cells.

pUC18 plasmid DNA = assay: pDNA cleavage in vitro (agarose gel electrophoresis); format: biochemical, E. coli; settings: for concentration at which the interaction with pDNA reaches saturation / pDNA cleavage mode: 100 ng pUC18, 24 h; for pDNA cleavage mode: 5–100 μM complex; for effect of NaN3 (singlet oxygen scavenger) on pDNA cleavage by the complex: 24 h, 50 μM complex + 50 μM NaN3
[7] = system: HCT116 (colorectal carcinoma cell line); assay: MTS cell viability assay, 2D culture, HCT116; format: cell-based, human; settings: 48 h of exposure
Experimental: as §1
Cell culture and maintenance
as §2, §3
human primary dermal fibroblasts.
as §4, §5, §6, §7, §8, §9, §10, §11, §12, §13, §14, §15, §16, §17, §18, §19, §20, §21, §22, §23, §24, §25, §26, §27, §28, §29, §30, §31

HCT116DoxR cells [8] = assay: Annexin V-FITC/PI apoptosis assay by flow cytometry; settings: 48 h; for cells (%) early apoptosis / cells (%) late apoptosis / cells (%) necrosis / cells (%) viable / percentage of apoptosis (early + late): complexes at IC50, Dox 6 μM, cisplatin 5 μM; for fold increase in apoptotic cells, normalized to DMSO: complexes at IC50, cisplatin 5 μM
Experimental: To evaluate the cell death mechanism involved in the cytotoxic effect of the selected complexes, a double-staining with Annexin V-FITC and PI was performed. […] The use of Annexin V conjugated with the fluorophore FITC allows the quantification of this interaction and subsequent identification of cells in apoptosis by flow cytometry. Furthermore, PI is a fluorophore that can intercalate with DNA and that can only enter the cell when the membrane is either compromised or ruptured, making it possible to identify cells undergoing late apoptosis and necrosis. Therefore, the double staining makes it possible to distinguish between viable cells (FITC^–; IP^–), those undergoing initial apoptosis (FITC^+; IP^–), those undergoing late apoptosis (FITC^+; IP^+), and those undergoing necrosis (FITC^–; IP^+).[55],[58]
Evaluation of apoptosis induction in HCT116DoxR cell line by flow cytometry The induction of apoptosis in HCT116DoxR cell line was evaluated by flow cytometry, using the
Annexin V-FITC Apoptosis Detection Kit (Thermo Fisher Scientific, Waltham, MA, USA). Cells
were seeded in 6-well plates at a cell density of 1×10^5 cells/mL and incubated for 24 h. Afterwards,
culture medium was replaced by medium with different Cu(II) complexes at their IC50 concentrations.
After 48 h of incubation, cells were washed with PBS 1x, detached from each well with TrypLETM
Express and washed again with PBS 1x. Cells were then resuspended in 1x annexin-binding buffer and
incubated at rt for 15 min with Annexin V-FITC and 100 μg/mL PI.
All samples were analysed by an Attune® Acoustic Focusing Flow Cytometer (Thermo Fischer
Scientific, Waltham, MA, USA) and the results were processed with Attune® Cytometric software

Structure (SMILES)	cell cycle progression after 12 h (HCT116DoxR cells [2]; IC50, thymidine double block)	formation of new blood vessels after 24 h (chicken embryos)	formation of new blood vessels after 48 h (chicken embryos)	IC50 [3]	apparent binding constant (Kapp) (EB–ct-DNA adduct)	Stern–Volmer quenching constant KSV (EB–ct-DNA adduct)	fibroblast migration (% of remission) (fibroblasts)	IC50 [4]	IC50 [5]	expression of BAX compared to the DMSO control (BAX and BCL-2)	expression of BCL-2 compared to the DMSO control (BAX and BCL-2)	IC50 (HCT116DoxR spheroids)	maximum absorbances after 24 or 48 h compared to 0 h (reduction of solubility) [6]	concentration at which the interaction with pDNA reaches saturation (pUC18 plasmid DNA)	pDNA cleavage mode (pUC18 plasmid DNA)	effect of NaN3 (singlet oxygen scavenger) on pDNA cleavage by the complex (pUC18 plasmid DNA)	IC50 [7]	cells (%) early apoptosis (HCT116DoxR cells [8])	cells (%) late apoptosis (HCT116DoxR cells [8])	cells (%) necrosis (HCT116DoxR cells [8])	further results
F[P-](F)(F)(F)(F)F.[Cl][Cu].c1ccc(-c2cc(-c3ccc4ccccc4n3)cc(-c3ccccn3)n2)nc1 [[Cu(4′-(2-quinolinyl)-terpy)Cl](PF6)]																					toxicity in an in vivo model of CAM (CAM): low toxicity
Cn1cccc1-c1cc(-c2ccccn2)nc(-c2ccccn2)c1.[Cl][Cu][Cl]																					cytotoxic activity [1]: no cytotoxic activity
F[P-](F)(F)(F)(F)F.F[P-](F)(F)(F)(F)F.[Cl][Cu].[Cl][Cu].c1ccc(-c2cc(-c3ccnc4ccccc34)cc(-c3ccccn3)n2)nc1.c1ccc(-c2cc(-c3ccnc4ccccc34)cc(-c3ccccn3)n2)nc1 [complex 2, [Cu2Cl2(4′-(4-Quinolyl)-terpy)2](PF6)2]	delays cell cycle progression in the G2/M phase	no pro- or antiangiogenic effect	antiangiogenic effect	0.25 ± 0.02 µM	1.23 × 10^6 M^–1	2450 M⁻¹	lower compared to the positive control Dox	31.36 ± 0.02 µM	0.54 ± 0.07 µM	decreases	increases	15.2 ± 0.8 µM	slight decrease	25 μM	single strands	no effect	0.31 ± 0.01 µM	47.3 ± 2.9%	22.7 ± 4.6%	0.3 ± 0.4%	cell cycle progression after 24 h (HCT116DoxR cells [2]; 24 h, complexes at IC50, cisplatin 5 μM): delay the cycle in the G2/M phase; cells (%) viable (HCT116DoxR cells [8]): 29.7 ± 6.3%; percentage of apoptosis (early + late) (HCT116DoxR cells [8]): 65 to 70%; fold increase in apoptotic cells, normalized to DMSO (HCT116DoxR cells [8]): ~6.4 fold
F[P-](F)(F)(F)(F)F.F[P-](F)(F)(F)(F)F.[Cl][Cu].[Cl][Cu].c1ccc(-c2cc(-c3ccco3)cc(-c3ccccn3)n2)nc1.c1ccc(-c2cc(-c3ccco3)cc(-c3ccccn3)n2)nc1 [complex 5, [Cu2Cl2(4′-(2-Furanyl)-terpy)2](PF6)2]	delays cell cycle progression in the G2/M phase	antiangiogenic potential	greater decrease in the % of blood vessels formed	0.22 ± 0.01 µM	1.84 × 10^6 M^–1	3640 M⁻¹	lower compared to the positive control Dox	12.57 ± 0.02 µM	0.79 ± 0.05 µM	decreases	increases	14 ± 0.6 µM	slight decrease	50 μM	single and double strands	almost completely reversed	0.26 ± 0.03 µM	47.2 ± 10.2%	18.7 ± 5.4%	0.2 ± 0.2%	cell cycle progression after 18 h (HCT116DoxR cells [2]; 18 h, IC50, thymidine double block): delay in cycle progression in the G0/G1 phase; cells (%) viable (HCT116DoxR cells [8]): 33.9 ± 5.3%; percentage of apoptosis (early + late) (HCT116DoxR cells [8]): 65 to 70%; fold increase in apoptotic cells, normalized to DMSO (HCT116DoxR cells [8]): ~6.4 fold
